{
  "source": "patent US20230302014A1",
  "about": "“USES OF GLUCOCORTICOID RECEPTOR (GR) ANTAGONIST AND ANDROGEN RECEPTOR (AR) DEGRADER COMBINATIONS” (ORIC Pharmaceuticals, Inc., priority 2020, published 2023)",
  "format_in_all_cases": "cell-based, Human",
  "key": {"[1]": {"test_system": "GR protein", "assay": "Western blot of GR protein after dose-dependent or time-dependent AR degrader treatment", "conditions": "LNCaP and CWR22PC cells, 3 days, increasing doses 3-1000 nM", "method": "(§1) LNCaP and CWR22PC cells were plated in seven 15-cm dishes (Corning#353025) at a density of 5 million cells per dish in RPMI-1640 media supplemented with 10% charcoal-stripped serum (CSS; OmegaScientific#FB4). After 24 hours, the cells were treated with 0, 3, 10, 30, 100, 300 and 1000 nM of ARD1 or ARD2 and incubated at 37° C. for 3 days. The cells were then trypsinized (Corning#25-053-CI) and harvested for transcript (RT-qPCR) and protein (western blot) analysis.\n5 million of LNCaP and CWR22PC cells per dish were plated in five 15-cm dishes in 20 mL of RPMI-1640 media supplemented with 10% charcoal-stripped serum (CSS) and cultured at 37° C. for 24 hours. Cells were treated with 30 nM of dexamethasone and with 100 nM of ARD1 or ARD2 and maintained at 37° C. until harvest. On Day 0, 6, 10, 13, and 15, cells were trypsinized, cell pellets were washed with 1XPBS and then divided for mRNA and protein preparation.\nCell pellets were washed with PBS and lysed in RIPA buffer (VWR#AAJ63306-AK) supplemented with […] (VWR #AAJ65789-LQ). Resuspended cells were briefly sonicated for ~30 seconds using a probe sonicator and incubated on ice for 40 minutes, followed with centrifugation at 12,000 rpm for 15 minutes at 4° C. to collect the supernatant. Protein concentration was quantitated using Quick Start™ Bradford Protein Assay Kit (Bio-Rad #5000201). […]"}, "[2]": {"test_system": "AR mRNA", "assay": "RT-qPCR of AR mRNA after dose-dependent AR degrader treatment", "conditions": "LNCaP and CWR22PC cells, 3 days, increasing doses 3-1000 nM", "method": "as §1\n(§2) Adherent cells or cell pellets harvested for mRNA analysis were first washed once with PBS and then resuspended in 600 µL of RLT lysis buffer (Qiagen Inc.) supplemented with 1% of betamercaptoethanol. RNA was extracted by QIAcube using the RNeasy Mini QIAcube kit (Qiagen#74116) according to manufacturer’s instructions. The extracted RNA samples were then quantified using a Nanodrop 8000 Spectrophotometer. RT-qPCR reactions were set up in triplicate using 3 µL of 3 ng/ µL of RNA in 7 µL of pre-mixed SensiFAST™ SYBR No-ROX One-Step Kit reagents (BIOLINE# BIO-98005). The RT-qPCR reactions were run on a Bio-Rad CFX384 Real-Time PCR System and data was plotted with GraphPad Prism 8 software.\nLNCaP and CWR22PC cells were plated in seven 10-cm dishes (Corning#353003) at a density of 2 million cells per dish in RPMI-1640 media supplemented with 10% charcoal-stripped serum (CSS; OmegaScientific#FB4). […]"}, "[3]": {"test_system": "AR and GR target genes in CWR22PC cells", "assay": "End of study (EOS) biomarker analysis by RT-qPCR", "conditions": "CSS media, day 21 EOS, 0.1 nM R1881 + 1 µM ARV-110, + 30 nM dexamethasone, + 0.5 µM compound 1", "method": "(§3) CWR22PC cells were seeded at a density of 2 × 10^5 cells/well in 6-well plates (Corning# 3516) in 2 mL of RPMI-1640 media supplemented with 10% charcoal-stripped serum (CSS) in duplicate. 24 hours later, cells were treated with 100 pM R1881, 30 nM dexamethasone, 0.5 µM compound 1, 1 µM of ARD1 or ARD2, or combinations thereof as indicated. Fresh media containing the indicated treatment was replaced every 5-7 days. Cell supernatant was collected on Day 12 and 19 and stored at -80° C. for PSA AlphaLISA assay. Cell images were taken on Day 12 and 19 using Leica DMi8 microscope (LEICA MICROSYSTEMS, INC. IL) with a 10X magnification. Cells were then trypsinized and cell numbers in each treatment group were counted three times, average counts were plotted with GraphPad Prism 8. Cell pellets were washed once with 1XPBS and then lysed in 600 µL RLT RNA lysis buffer and stored at -80° C. RNA was extracted for end of study (EOS) biomarker analysis for which the detailed procedures are described in the section RNA Extraction and RT-qPCR analysis.\nas §2\nCWR22PC cells were seeded at a density of 2 × 10^5 cells/well in 6-well plates (Corning# 3516) in 2 mL of RPMI-1640 media supplemented with 10% charcoal-stripped serum (CSS) in duplicate. […] Cells were then trypsinized and cell numbers in each treatment group were counted three times, average counts were plotted with GraphPad Prism 8. […]"}, "[4]": {"test_system": "CWR22PC cells", "assay": "Cell growth (cell number) of prostate cancer cells under long-term treatment", "conditions": "CWR22PC; CSS media; 21 days; 0.1 nM R1881 + 1 µM ARV-110, + 30 nM dexamethasone, + 0.5 µM compound 1", "method": "as §3\nThe impact of ARD1 and ARD2 on the growth of prostate cancer cells was explored. CWR22PC cells were plated in charcoal-stripped serum (CSS) media and treated with vehicle or 0.1 nM R1881 (synthetic AR ligand) without or with 1 µM of ARD1 or ARD2. Media with treatments were replaced every 5-7 days and cells were maintained at 37° C. for 22 days. Supernatant of each group was harvested at day 22 to measure PSA secretion by PSA AlphaLISA assays.\nas §3, with “24 hours later, cells were treated with 100 pM R1881, 30 nM dexamethasone, 0.5 µM compound 1, 1 µM of ARD1 or ARD2, or combinations thereof as indicated.” left out, “15” for “12”, “21” for “19”, “assay.” for “assay. Cell images were taken on Day 12 and 19 using Leica DMi8 microscope (LEICA MICROSYSTEMS, INC. IL) with a 10X magnification.”"}},
  "data": [
    {"compound": "N#Cc1ccc(O[C@H]2CC[C@H](NC(=O)c3ccc(N4CCC(CN5CCN(c6cc7c(cc6F)C(=O)N(C6CCC(=O)NC6=O)C7=O)CC5)CC4)nn3)CC2)cc1Cl", "note": "(stereo partly drawn) [ARV-110, N-[trans-4-(3-chloro-4-cyanophenoxy)cyclohexyl]-6-[4-[[4-[2-(2,6-dioxo-3-piperidinyl)-6-fluoro-2,3-dihydro-1,3-dioxo-1H-isoindol-5-yl]-1-piperazinyl]methyl]-1-piperidinyl]-3-pyridazinecarboxamide]", "values": [
      {"measurement": "GR protein levels", "setting": "[1]", "result": "minimally impacting"},
      {"measurement": "AR transcript levels", "setting": "[2]", "result": "minimally impacting"},
      {"measurement": "R1881-induced target gene (biomarker) expression", "setting": "[3]", "result": "blunts"},
      {"measurement": "R1881-induced cell growth", "setting": "[4]", "result": "blunts"}
    ]}
  ]
}
